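How tested: cells in 96-well plates exposed to compound for 48 hours at five concentrations. TGI: total growth inhibition.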 Where a SMILES comes first, the peptide text is derived from it. The star is where a group is joined. OSu = O=C1CCC(=O)N1O*
What was measured:
Experiment in all cases: NCI tumour cell line growth inhibition, 48 h
HCT-15 colon = test system: HCT-15 colon
HOP-92 NSCLC = test system: HOP-92 NSCLC
MDA-N = test system: MDA-N
OVCAR-3 ovarian = test system: OVCAR-3 ovarian
SK-MEL-28 melanoma = test system: SK-MEL-28 melanoma
UACC-62 melanoma = test system: UACC-62 melanoma
UO-31 renal = test system: UO-31 renal

Row | SMILES | TGI (HCT-15 colon) [µM] | TGI (HOP-92 NSCLC) [µM] | TGI (MDA-N) [µM] | TGI (OVCAR-3 ovarian) [µM] | TGI (SK-MEL-28 melanoma) [µM] | TGI (UACC-62 melanoma) [µM] | TGI (UO-31 renal) [µM]
1 | O=C1OC(c2ccccc2)=N/C1=C\c1ccc([N+](=O)[O-])cc1 | > 100 | 76.2 | > 100 | > 100 | > 100 | 96 | > 100
2 | Nc1ncc2c(n1)-c1ccccc1OC2N1CCCCC1 (stereo not given) | > 100 | > 100 | > 100 | > 100 |  | > 100 | > 100
3 | O=C1NC2(CCN(CCc3ccccc3)CC2)Oc2ccccc21 | > 100 | 69.4 | > 100 | > 100 | > 100 | > 100 | > 100
4 | C[N+]12C=CC=C1C(N1CCCC1)c1scc(-c3ccc(Br)cc3)c12 (stereo not given) | > 100 | 42.1 | 98.2 | 39.1 | > 60.5 | 80.3 | > 100
5 | O=C1/C(=C\c2ccc(Cl)cc2Cl)Sc2scc(-c3ccc(O)c(O)c3)[n+]21 | 30.1 | 23.1 | 60.1 | 23.2 | 31.7 | 22.4 | 26.8
6 | Cc1nn(C(=O)Cc2ccccc2)c2c1C(c1ccccc1)SC(N)=N2 (stereo not given) | > 100 |  | > 100 |  | > 100 | > 100 | > 100
7 | COc1ccc(C(SCCO)(c2ccccc2)c2ccc(OC)cc2)cc1 | 30.3 | 29.1 | 20.3 | 33.9 | 34.1 | 24.8 | 31.7
8 | N#C/C(N)=C(\C#N)NC=NCCO | > 100 |  | > 100 | > 100 | > 100 | > 100 | > 100
9 | C[C@]12[C@@H]3CC[C@H]1[C@@H](O)C(=O)N2CC3 | > 100 | > 100 | > 100 |  | > 100 | > 100 | > 100
10 | CCOC(=O)c1ccc(-c2cc(C)no2)[nH]1 | > 100 | > 100 | > 100 | > 100 | > 100 | > 100 | > 100
11 | C=CCNC(=S)N/C=C(\C#N)C(N)=O | > 100 |  | > 100 | > 100 | > 100 | > 100 | > 100
12 | O=C1/C(=C/c2ccco2)NC(=S)N1CN1CCCCC1 | > 100 | > 100 | > 100 | > 100 | > 100 | > 100 | > 100
13 | Cc1cn(C2OC(CO[Si](C)(C)C(C)(C)C)C(N(C)O[Si](C)(C)C(C)(C)C)C2[Se]c2ccccc2)c(=O)[nH]c1=O (stereo not given) | 30.1 | 10.9 | > 100 | 19.9 | 22.2 | 42.4 | 13.7
14 | CCOC(=O)c1cn2c(n1)sc1cc(F)ccc12 | > 100 | > 100 | > 100 | > 100 | > 100 | > 100 | > 100
15 | O=c1[nH]c(=O)c2c3n(cc2[nH]1)CCCCC3 | > 100 | > 100 | > 100 |  | > 100 | > 100 | > 100
16 | Cc1ccc(S(=O)(=O)N2C3C=CC(C3)[C@@H]2C(Cl)(Cl)Cl)cc1 (stereo not given in full) | 62.6 | 38.1 | 86.9 | 25.3 | 57.2 | 35.2 | 59.3
17 | COC(=O)[C@]1(C)CCC[C@@]2(C)C1CC[C@@]13C=C(C(C)C)[C@@H](CC1=O)CC23 (stereo not given in full) | 45.4 |  | > 100 | 45.9 | > 100 | > 100 | 49
18 | CSC(=O)c1sc(SC)[n+](-c2ccccc2)c1O | 54.3 |  | 37.1 | 26.2 | 34.9 | 29.7 | 31.4
19 | C(=C/CCCN1O[C@@H](CCCCCCCCc2cccnc2)[C@H]2CCC[C@H]21)/CCCCCCCCCc1cccnc1 | 58.9 | 28.1 | 71.9 | 36.1 | 48.7 | 51 | 40.5

Row | SMILES | TGI (HCT-15 colon) [µM] | TGI (HOP-92 NSCLC) [µM] | TGI (MDA-N) [µM] | TGI (OVCAR-3 ovarian) [µM] | TGI (SK-MEL-28 melanoma) [µM] | TGI (UACC-62 melanoma) [µM] | TGI (UO-31 renal) [µM]
20 | CCOC(=O)C12OC(OCC)(CC1(OCC)OCC)C1(CC1)C2=O (stereo not given) | > 100 | > 100 | > 100 | > 100 | > 100 |  | > 100
21 | CCOC(=O)/C(C#N)=C/c1coc2cc(C)cc(C)c2c1=O | > 100 | > 100 | > 100 | > 100 | > 100 | > 100 | > 100
22 | CC(C)(CN1CCCCC1)C(/C=C/c1ccc(Cl)cc1)=N\NC(=O)N/N=C(/C=C/c1ccc(Cl)cc1)C(C)(C)CN1CCCCC1 | 7.99 | 8.72 | 10.7 | 10.7 | 25.3 | 12.1 | 9.03
23 | COc1ccc(NC(=S)c2ccc(CN3CCCCC3)s2)cc1 | 26.9 |  | 36.7 | > 100 | 33.8 | 32.8 | 35.7
24 | O=C(O)Cc1ccc([N+](=O)[O-])cc1[N+](=O)[O-] | > 100 |  | > 100 | > 100 | > 100 | > 100 | > 100
25 | COCOC1/C=C/CCCCC(=O)C(C)C#CC1 (stereo not given) | 7.11 | 8.46 | 27 | 10.9 | 25.4 | 15.8 | 18.9
26 | COc1ccc(C2=CC(C(C)=C(C(N)=O)C(N)=O)C=C(c3ccc(Br)cc3)C2)c(OC)c1 (stereo not given) | > 100 | > 100 | > 100 | > 100 | > 100 | > 100 | > 100
27 | O=C(C(=O)n1ccc2ccccc21)n1ccc2ccccc21 | > 100 | > 100 | > 100 | > 100 | > 100 | > 100 | > 100
28 | CC(N)/C(N)=N/O (stereo not given) | > 100 | > 100 | > 100 | > 100 | > 100 | > 100 | > 100
29 | COC(=O)c1cccc(C)c1C1CN=NC12Cc1cc(C)cc(C)c1C2=O (stereo not given) | > 100 | > 100 | > 100 | > 100 | > 100 |  | > 100
30 | CCOC(=O)CCC(NC(=O)C(N)Cc1ccc(N(CCCl)CCCl)cc1)C(=O)OCC (stereo not given) | 1.93 | 1.59 | 4.98 | 1.68 | 2.18 | 1.4 | 2.92
31 | COc1cc2c(/C=C3/C(=O)Nc4cccc(Cl)c43)c(Cl)[nH]c2cc1C | 4.29 | 22.6 |  | 4.29 | 4.27 | 4.21 | 17.1
32 | CCOC(=O)CCCSCCCC(=O)CCCSCCCC(=O)OCC | > 100 | > 100 | > 100 | > 100 | > 100 | > 100 | > 100
33 | C[C@]12c3c4cc(NC(=O)C(=O)NCc5ccc(-c6ccccn6)nc5)cc3Oc3cc(NC(=O)C(=O)NCc5ccc(-c6ccccn6)nc5)cc(c31)OC1C=C(NC(=O)C(=O)NCc3ccc(-c5ccccn5)nc3)C=C(O4)C12 (stereo not given in full) | > 100 |  | > 100 | > 100 | > 100 | 79.1 | 68.6
34 | O=C1c2cc3c(cc2CC12Cc1ccc4c(c1C2=O)CCC4)CCCC3 (stereo not given) | > 100 | > 100 | > 100 | > 100 | > 100 |  | > 100
35 | N#CSC#CCCC#CSC#N | 34.8 | 39.5 | 34.8 | 51.8 | 82 | 31.8 | 33.5
36 | O=c1[nH]c(=O)n(C2COC(CO)C2O)cc1F (stereo not given) | > 100 | > 100 | > 100 | > 100 | > 100 | > 100 | > 100
37 | COc1cc(OCCN(C)C)c2[nH]c(C(=O)N3CC(CCl)c4ccc(N)cc43)cc2c1 (stereo not given) | 1.58 | 0.617 |  | 0.607 |  | 0.567 | 2.25
38 | O=C1c2ccccc2-n2nnnc2C2CSCN12 (stereo not given) | > 100 |  | > 100 | > 100 | > 100 | > 100 | > 100

Row | SMILES | TGI (HCT-15 colon) [µM] | TGI (HOP-92 NSCLC) [µM] | TGI (MDA-N) [µM] | TGI (OVCAR-3 ovarian) [µM] | TGI (SK-MEL-28 melanoma) [µM] | TGI (UACC-62 melanoma) [µM] | TGI (UO-31 renal) [µM]
39 | O=C1c2cccc3cc([N+](=O)[O-])cc(c23)C(=O)N1Nc1ccc([N+](=O)[O-])cc1[N+](=O)[O-] | 27.4 | > 31.6 |  | 82.8 | 18 | 24.5 | 33.1
40 | CC(=O)CC1CCC(=O)/C=C/C(=O)OC(CC(C)=O)CCC(=O)/C=C/C(=O)O1 (stereo not given) | 4.16 | 10.3 | 24 | 17.1 | 20.5 | 29.1 | 26.9
41 | CON(C)C(=O)C(C)N(Cc1ccccc1)Cc1ccccc1 (stereo not given) | > 100 | > 100 | > 100 | > 100 | > 100 | > 100 | > 100
42 | C=C1C(=O)O[C@@H]2/C=C(C)/C=C\[C@@H]3O[C@@]3(C)C[C@@H](O)C12 (stereo not given in full) | 27.6 | 20.4 | > 100 | 29.8 | 35.8 | 27.2 | 30.1
43 | CCN(CC)CCCNC(=O)c1cc(-c2nccn2C)nc2ccccc12 | > 100 | > 100 | > 100 |  |  | > 100 | > 100
44 | COc1cc(S(=O)(=O)Nc2ccc(-c3csc(N4C(=O)CSC4c4cccc(Oc5ccccc5)c4)n3)cc2)ccc1Cl (stereo not given) | > 100 | > 100 | 75.8 | > 100 | 87.7 | > 100 | > 100
45 | CC1=NN(c2nc(N)nc(COc3ccc(N)cc3)n2)C(C)(C)C1 | > 100 | > 100 |  |  | > 100 | > 100 | > 100
46 | COC(=O)CC(C)(NS(=O)c1ccc(C)cc1)c1ccccc1 (stereo not given) | > 100 | > 100 | > 100 | > 100 | > 100 | > 100 | > 100
47 | CCCCCCc1cc2cc(-c3cn4ccsc4n3)c(=O)oc2cc1O | > 100 | > 100 | > 22.8 | > 100 | > 35.9 | > 50.8 | > 100
48 | Cc1ccc(Nc2nc(NNC(=O)Cc3ccccc3)nc(NNC(=O)c3ccncc3)n2)cc1 | > 10 | > 10 | > 10 |  | > 10 | > 10 | > 10
49 | Nc1nc(Cl)cc(OCC2(CO)CC=CC2)n1 | > 100 | > 100 | > 100 | > 100 | > 100 |  | 
50 | COc1ccc(C(C)NNC(=O)c2ccncc2)cc1OC (stereo not given) | > 100 | > 100 | > 100 | > 100 | > 100 | > 100 | > 100
51 | NCCCCC(NC(=O)C(N)Cc1ccc(O)cc1)C(=O)NC(CCCCN)C(=O)NC(CCCCN)C(=O)ON1C(=O)CCC1=O (stereo not given) (H-YKKK-OSu; configuration not given here) | > 100 | > 100 | > 100 |  | > 100 | > 100 | > 100
52 | N#Cc1nc(-c2cnccn2)oc1N | > 100 | > 100 | > 100 |  | > 100 | > 100 | > 100
53 | COc1cccc(-c2cc(=O)c3cc(N4CCCCC4)ccc3[nH]2)c1 | > 100 | > 100 |  | 13.3 | > 100 | > 100 | > 100
54 | Cc1ccc2nc(-c3ccccc3)cc(=O)n2c1 | > 100 | > 100 | > 100 | > 100 | > 100 | > 100 | 
55 | C=C1c2nc3ccccc3n2C=C(c2ccc(OC)cc2)N1c1ccc(OC)cc1 | > 100 | 85.5 | > 100 | 32.2 |  | 51.8 | 58.5
56 | CC1=C/C(=N\NC(N)=S)C(C(O)(C(F)(F)F)C(F)(F)F)C(C)(C)C1 (stereo not given) | > 10 | > 10 | > 10 | > 10 | > 10 | > 10 | 
57 | O=S(=O)(O)c1cc(N=Nc2c(O)ccc3ccccc23)cc2c(S(=O)(=O)O)cccc12 | > 100 | > 100 |  | > 100 | > 100 | > 100 | > 100

From PubChem BioAssay (NCI)
